Results on 4 compounds are retold here after US20240147987A1, “METHOD FOR IMPROVING THE EFFECT OF THE OOCYTE CRYOPRESERVATION BY REDUCING THE MITOCHONDRIAL TEMPERATURE” (China Agricultural University, priority 2022, published 2024).

In data set [1] the test system is porcine oocytes. Put plainly: Oocyte mitochondrial temperature detection (Mito Thermo Yellow probe fluorescence). The format is cell-based. On the procedure:
(§1) 100 nM Mito Thermo Yellow dye was added in TL-HEPES-0.3% BSA solution and preheated for 15 min at 37° C. in an incubator containing 5% CO2, the oocytes were moved into the preheated dye solution in the incubator for 15 min and then washed three times with TL-HEPES-0.3% BSA for 10 min each time, the fluorescence intensity was detected by laser confocal microscopy, and the changes of mitochondrial temperature were analyzed.
Metformin can effectively reduce mitochondrial heat production.

Data set [2] relates to vitrified porcine oocytes. Put plainly: Survival rate detection of vitrified oocytes after thawing (FDA staining). Particulars: freezing group 71.85%. The data set is classed as cell-based. On the procedure:
The room temperature was adjusted to 25±1° C. so that the test apparatus and reagents were fully balanced, the experiment was carried out on a 37° C. thermostat, the oocytes were transferred into 20% EG solution for 3 min, and then transferred into the vitrification solution EDFS40 for 30-40 s, the oocytes were then placed on the cryocarrier Cryotop. […] When thawing the oocytes, the Cryotop was taken out from liquid nitrogen, and the oocytes were immediately immersed in PBS containing 1M sucrose (containing 20% FBS) on a thermostatic table (37° C.) for 1 min, and then transferred to PBS containing 0.5M and 0.25M sucrose (containing 20% FBS) for 3 min, and then placed in PBS containing 20% FBS for recovery for 5 min, and then washed three times with mature medium and placed in mature medium for recovery for 2 hours. • (1) Survival Rate Detection of Oocytes after Thawing
The survival rate of oocytes was detected by FDA (fluorescein diacetate) staining. The collected oocytes were incubated in TL-HEPES-0.3% BSA solution containing 2.5 μg/mL FDA for 1 min and then washed three times with TL-HEPES-0.3% BSA solution, the oocytes were placed on a petri dish and observed using a fluorescence microscope, the oocytes with green fluorescence were considered to be alive.

Data set [3] has as its system porcine oocytes. Nature of the data set: Parthenogenetic activation of oocytes (cleavage and blastocyst development). On the procedure:
After the first polar body was extruded, mature oocytes with uniform cytoplasm were selected for parthenogenetic activation. The oocytes were washed three times with a pre-heated electro-activation solution, and then the oocytes were placed between electrodes filled with the activation solution, the electro-activation solution was 0.3 M mannitol, 0.05 mM CaCl2, 0.1 mM MgCl2, and 0.4% (m/v) bovine serum albumin dissolved in water. An electric fusion meter (Fujihira Industry Co. Ltd, Tokyo, Japan) was used for electrical activation, the electric field intensity was 65 V/mm, the DC pulse duration was 80 μs, and the number of pulses was 1. The activated oocytes were cultured in PZM-3 containing 5 μg/mL cytochalasin B and 10 μg/mL cycloheximide at 38.5° C., 5% CO2 for 4 h. Then the oocytes were washed and cultured in PZM-3 (day 0). The number of cleavage embryos was counted on day 2 and blastocyst formation was recorded on day 7.

Data set [4] relates to porcine oocytes. Nature of the data set: Oocyte membrane fluidity detection by FRAP. The data set is classed as cell-based. Particulars: metformin pretreatment; P<0.05. How it is done:
The membrane fluidity of oocytes was detected by fluorescence recovery after photobleaching (FRAP). The oocytes were first placed in TL-HEPES-0.3% BSA solution containing cell membrane fluorescent probe Dil, and incubated at 37° C. in the incubator containing 5% CO2 for 10 min. After incubation, the oocytes were washed three times within TL-HEPES-0.3% BSA solution, and then the oocytes were placed in a confocal dish. FRAP experiments were performed on a confocal microscope. Firstly, a bleaching area was selected, and three fluorescence images were collected before bleaching, with an interval of 5 s for each image. The bleaching fluorescence intensity was 100%, and the bleaching time was 7.93 s. Recovery time was 3 min after bleaching, and fluorescence images were collected at 5 s intervals. The fluorescence intensity of the bleaching area was statistically analyzed and the data were normalized.

For data set [5], the system named is vitrified oocytes. Put plainly: Mitochondrial temperature of vitrified oocytes after thawing (MTY probe). Particulars: metformin pretreatment before freezing; P<0.01. The format is cell-based, porcine. On the procedure: as §1
The room temperature was adjusted to 25±1° C. so that the test apparatus and reagents were fully balanced, the experiment was carried out on a 37° C. thermostat, the oocytes were transferred into 20% EG solution for 3 min, and then transferred into the vitrification solution EDFS40 for 30-40 s, the oocytes were then placed on the cryocarrier Cryotop. […]
The effect of metformin pretreatment on the mitochondrial temperature of vitrified oocytes was further analyzed.

The subject of data set [6] is vitrified oocytes. Put plainly: Ultrastructural observation of lipid droplets in oocytes (TEM). The format is cell-based, porcine. The conditions noted are these: metformin pretreatment.
Procedure: The oocytes were washed with DPBS and fixed overnight at 4° C. in a 0.1M dimethylarsenate buffer containing 2.5% (m/v) glutaraldehyde. After washing with DPBS, oocytes were fixed with 1% osmic acid, then washed with DPBS, and dehydrated in a gradient of 30%, 50%, 70%, 80%, 90%, and 100% acetone. The epoxy resin SPURR was used for embedding-polymerization, and the LKB-V slicing machine (ultra-thin slice thickness 50 nm (diamond knife)) was used for slicing, and then the double staining of uranium acetate-lead citrate was carried out on the copper mesh of the electron microscope, the copper mesh containing the sample was dried in a glass dish overnight, and the image was collected using a transmission electron microscope (TEM) at 80 kv (HITACHI, New Bio-TEM H-7500, Japan).
The mark [7] stands for this setting: 1 μM UK5099 vs control group, after parthenogenetic activation.
The mark [8] stands for this setting: 2 μM UK5099 vs control group, after parthenogenetic activation.
Setting [9] is: UK5099 0.5 μM, 1 μM, 2 μM, 4 μM.
The mark [10] stands for this setting: rotenone-treated group vs control group, after parthenogenetic activation, P<0.01.

Molecules are shown by their SMILES. Where “and” joins values, the source holds several entries; their conditions need not be identical. Equal entries are not always repeated.

`N#C/C(=C\c1cn(-c2ccccc2)c2ccccc12)C(=O)O` [UK5099]: the mitochondrial temperature entry in the data set on porcine oocytes [1] (1 μM UK5099 treatment for 1 h, P<0.05) is on record as “significantly reduced”. Also, the mitochondrial temperature result in the data set with porcine oocytes [1] (2 μM UK5099 treatment for 1 h, P<0.01) is given as “significantly reduced”. Besides, in data set [2] (UK5099 pretreatment before vitrification, P>0.05), the “Survival rate (%)” value was 67.50% and 67.50^b(135/200) %. Besides, in the data set with porcine oocytes [3] (setting [7]), the blastocyst rate result was “not significantly different” and the cleavage rate entry is reported as “not significantly different”. Moreover, in the data set with porcine oocytes [3] (setting [8]), the blastocyst rate entry is “not significantly different” and the cleavage rate result is listed as “not significantly different”. In the data set on porcine oocytes [3] (setting [9]), the “blastocyst rate, trend with concentration” value is “decreased with the increase of UK5099 concentration” and the “cleavage rate, trend with concentration” value is reported as “decreased with the increase of UK5099 concentration”.

Turning to `CN(C)C(=N)N=C(N)N` [metformin], in the data set with porcine oocytes [4], the plasma membrane fluidity result is recorded as “significantly decreased”. Also, in the data set on porcine oocytes [1] (400 μM metformin treatment for 1 h, P<0.05), the mitochondrial temperature entry was “significantly reduce mitochondrial temperature”. Further, in the data set with vitrified oocytes [5], the “mitochondrial temperature of vitrified oocytes after thawing” value is reported as “significantly higher than that of the conventional freezing group”. The “Survival rate (%)” value in data set [2] (pretreated with 400 μM metformin for 1 h before vitrification, P<0.05) is recorded as 81.36%; in data set [2] (pretreated with 400 μM metformin for 1 h before vitrification, P<0.05, listed as Metformin), 81.36^c(179/330) %. In addition, in the data set on porcine oocytes [3] (metformin pretreatment group vs control group, after parthenogenetic activation, day 2), the cleavage rate result is recorded as “no significant difference”. Also, the blastocyst development rate entry with porcine oocytes [3] (metformin pretreatment group vs control group, after parthenogenetic activation, day 7) is “no significant difference”. For the same compound, the “size of lipid droplets in oocytes” value with vitrified oocytes [6] was “close to that of the fresh group”.

As to `C=C(C)[C@H]1Cc2c(ccc3c2O[C@@H]2COc4cc(OC)c(OC)cc4[C@@H]2C3=O)O1` [rotenone], in the data set with porcine oocytes [1] (1 μM rotenone treatment for 1 h, P<0.01), the mitochondrial temperature result is given as “significantly reduced”. In the data set with porcine oocytes [3] (setting [10]), the blastocyst development rate result was “significantly decreased” and the cleavage rate result is “significantly decreased”. The cytotoxicity result in the data set with porcine oocytes [3] (summary statement on rotenone) is “greater cytotoxicity”.

In the case of `CC[C@H]1/C=C/C=C/C[C@@H](C)[C@H](O)[C@@](C)(O)C(=O)[C@@H](C)[C@H](O)[C@@H](C)C(=O)[C@@H](C)[C@H](O)[C@@H](C)/C=C/C(=O)O[C@@H]2[C@H](C)[C@H](CC1)O[C@]1(CC[C@H](C)[C@H](C[C@@H](C)O)O1)[C@H]2C` [oligomycin], the mitochondrial temperature result in the data set with porcine oocytes [1] (0.5 μM oligomycin treatment for 1 h, P<0.01) is given as “significantly reduce”; with porcine oocytes [1] (1.5 μM oligomycin treatment for 1 h, P<0.01) it was “significantly reduce”; in the data set with porcine oocytes [1] (2.5 μM oligomycin treatment for 1 h, P<0.01) it was “significantly reduce”. Moreover, the “Survival rate (%)” value is reported as 29.79% in data set [2] (oligomycin pretreatment before vitrification, P<0.05) and 29.79^c(56/188) % in data set [2] (oligomycin pretreatment before vitrification, P<0.05, listed as Oligomycin). Further, the blastocyst development rate result in the data set with porcine oocytes [3] (0.5 μM oligomycin vs control group) is “significantly lower”. For the same compound, the blastocyst development result with porcine oocytes [3] (1.5 μM oligomycin vs control group, P<0.01) is on record as “significantly lower”; with porcine oocytes [3] (2.5 μM oligomycin vs control group, P<0.01), “significantly lower”. Further, in the data set with porcine oocytes [3] (different concentrations of oligomycin vs control group, parthenogenetic activation, P<0.01), the cleavage rate result is on record as “significantly lower”.
